Measured values published in the NIST ThermoML archive (doi:10.1021/acs.jced.8b01095).

Tests used:
[1] = xn = mol fraction of the nth substance listed; conditions: Liquid, x1 = 1; for viscosity: 2 kPa, Falling or rolling sphere viscometry; for speed of sound / mass density: 100 kPa; for speed of sound: Single path-length method; for mass density: Vibrating tube method
[2] = Liquid; for viscosity: 2 kPa, Falling or rolling sphere viscometry; for speed of sound / mass density: 100 kPa; for speed of sound: Single path-length method; for mass density: Vibrating tube method
[3] = molar heat capacity at constant pressure; conditions: 100 kPa, Liquid, Extra sensitive DSC

CCCCn1cc[n+](C)c1.F[P-](F)(F)(F)(F)F [1-butyl-3-methylimidazolium hexafluorophosphate] + CNc1ccccc1
[1]
Conditions | mass density [kg/m3] | speed of sound [m/s] | viscosity [mPa·s]
298.15 K | 1367.24 | 1443.7 | 272.86
303.15 K | 1363.08 | 1431.9 | 204.1
308.15 K | 1358.91 | 1420.1 | 155.7
313.15 K | 1354.74 | 1408.5 | 120.9
318.15 K | 1350.58 | 1397.1 | 95.39
323.15 K | 1346.41 | 1385.9 | 76.37

CCCCn1cc[n+](C)c1.F[P-](F)(F)(F)(F)F [1-butyl-3-methylimidazolium hexafluorophosphate]
Conditions | mass density, [2] [kg/m3] | molar heat capacity at constant pressure, [3] [J/K/mol] | speed of sound, [2] [m/s] | viscosity, [2] [mPa·s]
298.15 K | 1367.24 | 407.08 | 1443.7 | 272.86
303.15 K | 1363.08 | 410.01 | 1431.9 | 204.1
308.15 K | 1358.91 | 412.77 | 1420.1 | 155.7
313.15 K | 1354.74 | 415.44 | 1408.5 | 120.9
318.15 K | 1350.58 | 418.26 | 1397.1 | 95.39
323.15 K | 1346.41 | 421.21 | 1385.9 | 76.37

CNc1ccccc1 [N-methylaniline]
Conditions | mass density, [2] [kg/m3] | molar heat capacity at constant pressure, [3] [J/K/mol] | speed of sound, [2] [m/s] | viscosity, [2] [mPa·s]
298.15 K | 982.7 | 207.12 | 1564.5 | 1.94
303.15 K | 978.59 | 210.92 | 1546.1 | 1.73
308.15 K | 974.47 | 214.73 | 1528.3 | 1.55
313.15 K | 970.36 | 218.53 | 1511.5 | 1.4
318.15 K | 966.24 | 222.37 | 1492.8 | 1.27
323.15 K | 962.13 | 225.88 | 1476.2 | 1.16

CCCC[n+]1ccn(C)c1.O=S(=O)([N-]S(=O)(=O)C(F)(F)F)C(F)(F)F
Conditions | mass density, [2] [kg/m3] | molar heat capacity at constant pressure, [3] [J/K/mol] | speed of sound, [2] [m/s] | viscosity, [2] [mPa·s]
298.15 K | 1436.62 | 567.22 | 1227.9 | 49.24
303.15 K | 1431.8 | 569.85 | 1216.8 | 40
308.15 K | 1426.98 | 572.64 | 1205.8 | 33.02
313.15 K | 1422.16 | 575.47 | 1195 | 27.66
318.15 K | 1417.34 | 578.38 | 1184.2 | 23.47
323.15 K | 1412.52 | 581.52 | 1173.6 | 20.15

CCCC[n+]1ccn(C)c1.O=S(=O)([N-]S(=O)(=O)C(F)(F)F)C(F)(F)F + CNc1ccccc1
[1]
Conditions | mass density [kg/m3] | speed of sound [m/s] | viscosity [mPa·s]
298.15 K | 1436.62 | 1227.9 | 49.24
303.15 K | 1431.8 | 1216.8 | 40
308.15 K | 1426.98 | 1205.8 | 33.02
313.15 K | 1422.16 | 1195 | 27.66
318.15 K | 1417.34 | 1184.2 | 23.47
323.15 K | 1412.52 | 1173.6 | 20.15
